A short description of data set [1]: In vitro release of stem cell recruitment factor (SP) and VP from hydrogels. Format: physicochemical. To be noted: physiological saline, 37° C., 100 rpm, 28 days; CHHA+SP and CHHA-VP+SP hydrogels. The method, then: First, an HA+VP solution was prepared by simply mixing VP with the HA solution prepared in Example 3 at a concentration of 320 μg/mL, and SP, which is a stem cell recruitment factor, was mixed with each of the HA solution and HA-VP solution at a concentration of 2 μg/mL to prepare an HA+SP solution and HA−VP+SP solution, respectively.
Next, 100 μL of the CH solution and 100 μL of the HA+VP solution were mixed in a vial to prepare 200 μL of a CHHA+VP hydrogel, and 100 μL of the CH solution and 100 μL of the HA-VP solution were mixed in a vial to prepare 200 μL of a CHHA-VP hydrogel.
In addition, 100 μL of the CH solution and 100 μL of HA+SP solution were mixed in a vial to prepare 200 μL of a CHHA+SP hydrogel, and 100 μL of the CH solution and 100 μL of the HA-VP+SP solution were mixed in a vial to prepare 200 μL of a CHHA-VP+SP hydrogel.
3 mL of a physiological saline was placed in each vial and stored in an incubator at 100 rpm and 37° C., and after taking 1 mL of the physiological saline from the vial at a predetermined time, 1 mL of a new physiological saline was added to the vial, and it was carried it out for 28 days to conduct a release experiment.

Data set [2] deals with human-derived mesenchymal stem cells (hMSCs). In words: SP's ability to recruit stem cells (trans well migration). Format: cell-based. The protocol: First, human-derived mesenchymal stem cells (hMSCs) were labeled with PKH 26 dye (Sigma, USA) and then dispensed in the upper chamber (8.0 μm pore size) of a 24-well trans well plate (SPL, Korea) to be 5×10^4 cells. After culturing in the upper chamber for 48 hours using serum-free DMEM (Dubelco's modified eagle medium, Gibco, USA) medium, DMEM containing 1 μg/mL SP and 1% FBS (fetal bovine serum, Gibco, USA) was added to the bottom well, and the medium was replaced every 3 days, and the hMSCs that migrated to the bottom well were observed using a fluorescence microscope (Olympus, Japan). As a control group, DMEM (including 1% FBS) without SP was added to the bottom well and observed.

Where [3] appears, read: 1 μg/mL SP in bottom well, DMEM with 1% FBS.

The results in this text go back to patent US20220409775A1, “INJECTABLE HYDROGEL COMPOSITION HAVING ENDOGENOUS PROGENITOR OR STEM CELL RECRUITMENT AND INDUCTION OF VASCULAR DIFFERENTIATION OF RECRUITED CELLS” (Ajou University Industry-Academic Cooperation Foundation, priority 2019, published 2022).

Take Substance P [SP]: the “release of SP from hydrogel” value in data set [1] was “release of SP occurred regardless of the chemical introduction of VP”. In addition, in data set [2] (setting [3]), the “Migration rate of hMSC” value is listed as 1.9 × 10^3 cells/day and the Rate constant was -0.49 day⁻¹. In addition, the “cells migrated to the lower side” value in data set [2] (SP present compared with SP absent) was “more cells migrated to the lower side”. The Relative migration rate in data set [2] (SP relative to Cont (no SP)) turned out to be 1.7.
